Reference: the supplement of paper PMC10307832

Tests used:
Experiment in all cases: relative viability (nuclei count vs DMSO), 5 days (fraction); higher = more cells survive
[1] = compound: COC1=CC=C(C=C1)CN2C=CC3=C2C=C(C=C3)C(=O)NO + CCNC(=O)c1noc(-c2cc(C(C)C)c(O)cc2O)c1-c1ccc(CN2CCOCC2)cc1 [Luminespib] (partner 0.01 µM)
In short: (§1)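 Lung cancer cell lines in 1536-well plates were dosed by pin tool the day after seeding, either with one drug alone or with a fixed anchor-drug dose plus five library-drug doses (not always all listed) in √10 steps. After 5 days, cells were fixed and their nuclei stained in one step (final 0.05% Triton X-100, 1% formaldehyde, 1 ug/ml Hoechst), then counted on 4× images. Relative viability is the nuclei count in treated wells divided by that in vehicle wells. Values are medians of duplicate plates.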

Veliparib + Olaparib = compound: C[C@]1(c2nc3c(C(N)=O)cccc3[nH]2)CCCN1 [Veliparib] + O=C(c1cc(Cc2n[nH]c(=O)c3ccccc23)ccc1F)N1CCN(C(=O)C2CC2)CC1 [Olaparib] (partner 8 µM)
In short: as §1

Veliparib + Pictilisib = compound: C[C@]1(c2nc3c(C(N)=O)cccc3[nH]2)CCCN1 [Veliparib] + CS(=O)(=O)N1CCN(Cc2cc3nc(-c4cccc5[nH]ncc45)nc(N4CCOCC4)c3s2)CC1 [Pictilisib] (partner 1 µM)
In short: as §1

[2] = compound: COC1=CC=C(C=C1)CN2C=CC3=C2C=C(C=C3)C(=O)NO + CC(=O)Nc1cccc(-n2c(=O)n(C3CC3)c(=O)c3c(Nc4ccc(I)cc4F)n(C)c(=O)c(C)c32)c1 [Trametinib] (partner 0.02 µM)
In short: as §1

Cell Line	relative viability ([1]; first compound 0.08 µM)	relative viability ([1]; first compound 0.253 µM)	relative viability ([1]; first compound 0.8 µM)	relative viability ([1]; first compound 2.53 µM)	relative viability ([1]; first compound 8 µM)	relative viability (Veliparib + Olaparib; first compound 0.02 µM)	relative viability (Veliparib + Olaparib; first compound 0.06325 µM)	relative viability (Veliparib + Olaparib; first compound 0.2 µM)	relative viability (Veliparib + Olaparib; first compound 0.6325 µM)	relative viability (Veliparib + Olaparib; first compound 2 µM)	relative viability (Veliparib + Pictilisib; first compound 0.02 µM)	relative viability (Veliparib + Pictilisib; first compound 0.06325 µM)	relative viability (Veliparib + Pictilisib; first compound 0.2 µM)	relative viability (Veliparib + Pictilisib; first compound 0.6325 µM)	relative viability (Veliparib + Pictilisib; first compound 2 µM)	relative viability ([2]; first compound 0.08 µM)	relative viability ([2]; first compound 0.253 µM)	relative viability ([2]; first compound 0.8 µM)	relative viability ([2]; first compound 2.53 µM)	relative viability ([2]; first compound 8 µM)
201T	1.05	1.13	1.07	1.05	0.987	0.809	0.906	0.852	0.824	0.83	0.682	0.623	0.682	0.678	0.658	0.769	0.733	0.773	0.743	0.701
A549	–	–	–	–	–	0.308	0.375	0.223	0.314	0.407	0.526	0.504	0.476	0.455	0.521	–	–	–	–	–
A-427	–	1.03	0.956	0.835	0.847	0.575	0.697	0.78	0.656	0.737	0.676	0.734	0.675	0.632	0.625	0.346	–	0.813	0.781	0.675
ABC-1	–	0.844	0.391	0.435	0.391	–	–	0.8	0.874	0.586	–	0.702	0.609	0.735	0.851	–	–	–	–	–
BEN	0.427	0.286	0.23	0.354	0.218	0.799	1.15	1.12	0.92	1	0.517	0.572	0.594	0.577	0.628	0.936	1.03	0.942	0.889	0.961
CAL-12T	0.163	0.233	0.528	0.452	0.332	0.723	0.727	0.696	0.649	0.712	0.439	0.395	0.522	0.386	0.351	0.387	0.347	0.33	0.335	0.301
COR-L23	0.536	0.754	0.716	0.747	0.603	0.376	0.247	0.329	0.295	0.355	0.722	0.645	0.697	0.536	0.774	0.5	0.617	0.627	0.615	0.522
COR-L 105	0.858	0.871	0.893	0.713	0.485	0.689	0.519	0.732	0.608	0.731	0.364	0.388	0.351	0.391	0.56	0.348	0.469	0.443	0.471	0.385
Calu-6	–	–	–	–	–	0.646	0.565	0.606	0.491	0.664	1.02	0.887	0.892	0.816	0.85	–	–	–	–	–
ChaGo-K-1	–	0.69	0.494	0.601	0.409	0.362	0.447	0.429	0.387	0.443	–	0.55	0.86	0.914	0.718	–	0.924	0.887	0.861	0.803
EBC-1	–	–	–	–	–	0.748	0.622	0.731	0.655	0.756	0.439	0.38	0.477	0.318	0.42	–	–	–	–	–
EKVX	0.864	0.896	0.913	0.858	0.783	–	0.911	0.889	0.72	0.867	0.427	0.464	0.465	0.361	0.397	–	0.28	0.345	0.366	0.305
EMC-BAC-2	0.964	1.25	1.16	1.21	1.11	0.539	0.427	0.483	0.455	0.495	0.483	0.542	0.569	0.524	0.541	0.629	–	0.971	0.95	0.803
EPLC-272H	0.262	–	0.333	0.4	0.235	–	0.764	1.05	0.733	0.715	–	0.227	0.283	0.278	0.0962	–	0.314	0.297	0.308	0.238
H3255	0.846	0.789	1.03	0.896	0.589	0.544	0.61	0.534	0.567	0.553	0.476	0.514	0.48	0.458	0.499	0.593	0.608	0.618	0.672	0.547
HARA	–	0.552	0.745	0.111	0.548	0.931	–	0.857	0.858	0.722	0.498	0.49	0.244	0.398	0.415	–	0.607	0.668	0.849	0.705
HCC-15	0.319	0.277	0.304	0.45	0.34	0.756	0.649	0.726	0.686	0.706	0.581	0.748	0.682	0.691	0.662	0.334	0.355	0.424	0.41	0.372
HCC-44	0.908	1.05	1.01	0.936	0.837	1.02	0.924	0.975	0.932	1	0.63	0.566	0.577	0.544	0.644	1.04	1.02	0.996	1.04	1.06
HCC-78	–	–	–	–	–	0.755	0.745	0.82	0.742	0.806	0.226	0.222	0.267	0.236	0.231	0.671	0.807	0.634	0.798	0.613
HCC-366	–	–	–	–	–	0.431	0.374	0.401	0.303	0.353	0.114	0.15	0.122	0.152	0.15	0.293	0.28	0.328	0.295	0.333

Cell Line	relative viability ([1]; first compound 0.08 µM)	relative viability ([1]; first compound 0.253 µM)	relative viability ([1]; first compound 0.8 µM)	relative viability ([1]; first compound 2.53 µM)	relative viability ([1]; first compound 8 µM)	relative viability (Veliparib + Olaparib; first compound 0.02 µM)	relative viability (Veliparib + Olaparib; first compound 0.06325 µM)	relative viability (Veliparib + Olaparib; first compound 0.2 µM)	relative viability (Veliparib + Olaparib; first compound 0.6325 µM)	relative viability (Veliparib + Olaparib; first compound 2 µM)	relative viability (Veliparib + Pictilisib; first compound 0.02 µM)	relative viability (Veliparib + Pictilisib; first compound 0.06325 µM)	relative viability (Veliparib + Pictilisib; first compound 0.2 µM)	relative viability (Veliparib + Pictilisib; first compound 0.6325 µM)	relative viability (Veliparib + Pictilisib; first compound 2 µM)	relative viability ([2]; first compound 0.08 µM)	relative viability ([2]; first compound 0.253 µM)	relative viability ([2]; first compound 0.8 µM)	relative viability ([2]; first compound 2.53 µM)	relative viability ([2]; first compound 8 µM)
HCC-827	0.537	0.58	0.461	0.51	0.652	0.629	0.634	0.561	0.585	0.615	0.936	0.957	1.01	0.984	1.06	0.539	0.537	0.528	0.533	0.514
HOP-62	0.756	0.876	0.939	0.951	0.94	–	0.347	0.364	0.342	0.383	0.705	0.79	0.818	0.548	0.738	0.362	0.399	0.371	0.391	0.375
IA-LM	–	–	–	–	–	0.896	0.702	0.743	0.678	0.74	0.444	0.364	0.374	0.306	0.367	–	–	–	–	–
LC-2-ad	0.993	0.82	0.992	1.06	0.791	0.744	0.68	0.662	0.756	0.681	–	0.431	0.428	0.464	0.497	0.841	0.899	0.882	0.938	0.991
LCLC-97TM1	0.412	0.797	0.801	0.803	0.724	0.433	0.475	0.439	0.233	0.527	0.155	0.224	0.215	–	0.235	–	0.201	0.228	0.19	0.204
LCLC-103H	0.938	0.99	0.948	1.03	0.883	0.753	0.74	0.826	0.75	0.745	0.685	0.615	0.577	0.666	0.651	0.653	0.65	0.715	0.694	0.679
LK-2	–	0.21	0.168	0.194	0.157	0.696	0.629	0.659	0.757	0.85	–	0.486	0.618	0.607	0.625	0.534	0.694	0.658	0.686	0.646
LOU-NH91	0.316	0.345	0.322	0.341	0.359	0.882	0.901	0.978	0.876	0.95	0.506	0.436	0.563	0.528	0.531	–	0.754	0.778	0.808	0.766
LU99A	–	0.227	0.288	0.29	0.277	0.252	0.266	0.257	0.265	0.31	0.349	0.279	0.296	0.278	0.323	–	0.61	0.553	0.548	0.455
LXF-289	–	0.732	0.709	0.714	0.632	1	1.04	1.01	0.986	1.16	0.78	0.778	0.768	0.746	0.755	–	0.698	0.712	0.677	0.677
NCI-H23	–	–	0.226	0.221	0.204	0.34	0.338	0.345	0.355	0.314	0.598	0.477	0.451	0.449	0.563	0.298	0.445	0.397	0.381	0.283
NCI-H322M	–	0.867	0.909	0.841	0.664	–	0.737	0.786	0.74	0.715	0.496	0.459	0.573	0.525	0.321	–	–	0.493	0.495	0.485
NCI-H522	1.01	1.13	1.18	1.06	1.22	0.678	0.593	0.667	0.57	0.566	–	–	–	–	–	–	0.812	0.678	0.767	0.64
NCI-H1299	–	–	–	–	–	1.03	0.949	0.925	0.963	1.03	0.985	0.703	0.779	0.751	0.765	–	–	–	–	–
NCI-H1563	0.507	0.506	0.517	0.551	0.488	–	–	–	–	–	0.642	0.635	0.625	0.675	0.595	–	–	–	–	–
NCI-H1623	0.578	0.761	0.576	0.471	0.392	–	–	–	–	–	–	–	–	–	–	–	–	–	–	–
NCI-H1648	–	–	–	–	–	0.948	–	–	0.7	0.919	–	–	–	–	–	0.413	0.42	0.461	0.583	0.438
NCI-H1703	–	–	–	–	–	0.514	0.292	0.397	0.56	0.501	0.267	0.267	0.23	0.254	0.216	–	–	–	–	–
NCI-H2342	0.697	0.629	0.762	0.786	0.738	0.383	0.461	0.469	0.41	0.474	–	–	–	–	–	0.815	0.901	0.759	0.971	0.861
SW 900	0.174	0.234	0.206	0.217	0.165	–	0.724	0.939	0.722	0.818	–	–	–	–	–	0.722	0.774	0.872	0.674	0.766
